# Tests used:
# [1] = system: SUDHL-4 (Human Diffuse Large B Cell Lymphoma -GCB); assay: CellTiterGlo cell viability assay; type: cell-based; settings: Homo sapiens, 72 h; SU-DHL-4; three-day assay; read-out: IC50 (nM) SU-DHL-4
# [2] = system: WSU-DLCL2 (Human Diffuse Large B Cell Lymphoma -GCB); assay: CellTiterGlo cell viability assay; type: cell-based; settings: Homo sapiens, WSUDLCL2, 72 h, three-day assay, read-out: IC50 (nM) WSU-DLCL2
Compound,IC50 [1] [nM],IC50 [2] [nM]
CC[C@H](Nc1ncnc2[nH]cnc12)c1nc2cccc(F)c2c(=O)n1-c1ccccc1 [idelalisib],2030,6150
C=CC(=O)N1CCC[C@@H](n2nc(-c3ccc(Oc4ccccc4)cc3)c3c(N)ncnc32)C1 [ibrutinib],718,747
CC1(C)CCC(CN2CCN(c3ccc(C(=O)NS(=O)(=O)c4ccc(NCC5CCOCC5)c([N+](=O)[O-])c4)c(Oc4cnc5[nH]ccc5c4)c3)CC2)=C(c2ccc(Cl)cc2)C1 [ABT-199],212,3370

# Stronger by IC50 [1], values ahead:
IC50 [1] [nM],IC50 [2] [nM],Compound
93,165,O=C(/C=C\n1cnc(-c2cc(C(F)(F)F)cc(C(F)(F)F)c2)n1)NNc1cnccn1 [KPT-330]
13,863,C[C@H](Nc1ncnc2nc[nH]c12)c1cc2cccc(Cl)c2c(=O)n1-c1ccccc1 [duvelisib]

# Source: US10350213B2 (AI Therapeutics, Inc., priority 2015, dated 2019)
